Experimental data published in publication PMC11672801, “Synthesis of Temporin-SHa Retro Analogs with Lysine Addition/Substitution and Antibiotic Conjugation to Enhance Antibacterial, Antifungal, and Anticancer Activities” (Antibiotics, 2024).
pIC50: −log10 of the molar value. Converted amounts (≈) assume the structure as drawn. Where two headings read alike, the source gives them in different places. Where a SMILES comes first, the peptide text is derived from it. [ ]: non-standard residue; d: D form.

Columns and labels:
E. coli (ATCC 25922) = assay: Antibacterial broth microdilution MIC assay; type: cell-based, Escherichia coli; settings: >99% inhibition of growth, MH broth, 20-22 h, 37 °C
Method: (§1) The antibacterial activity of peptide analogs was tested against different bacterial strains, i.e., Salmonella enterica subsp. enterica serotype Typhimurium or Salmonella typhi (ATCC 14028), Staphylococcus aureus (NCTC 13277), Bacillus subtilis (ATCC 23857), Escherichia coli (ATCC 25922), and Pseudomonas aeruginosa (ATCC 10145). These strains were obtained from the microbial bank of Dr. Panjwani Center for Molecular Medicine and Drug research (PCMD), International Center for Chemical and Biological Sciences (ICCBS), University of Karachi. Colonies of these bacterial strains were grown in respective agar media, then inoculated in Mueller Hinton (MH) broth (Oxoid, UK) and incubated at 37 °C overnight. The peptide solutions were first diluted 1 in 100 (from the stock solution at 20 mM) and then further two-fold dilution in MH broth in a sterile 96-well plate was performed, resulting in 100 µL of broth containing increasing concentrations of analogs. Bacteria in their exponential growth phase were diluted in MH broth, and 100 µL of this suspension was added in each well. […] Then, these plates were incubated at 37 °C for 20–22 h. MIC (Minimum Inhibitory Concentration) values were determined as the concentrations of peptides causing >99% inhibition of bacterial growth.

[1] = test system: human cervical cancer (HeLa) cells; assay: cells; type: cell-based; settings: MTT, 24 h exposure, read-out: IC50 on Cervical Cancer (HeLa)
Method: (§2) Human breast cancer (MCF-7) and human cervical cancer (HeLa) cells were obtained from the cell culture bank of PCMD in ICCBS, University of Karachi. These cells were maintained in Dulbecco’s Modified Eagle Medium (DMEM), supplemented with 10% fetal bovine serum, and incubated at 37 °C and 5% CO2. The antiproliferative activity of the samples was determined by a MTT assay. Briefly, the cells were washed with PBS and trypsinized. After determination of the cell number using Malassez cell counting, 100 µL of the cell suspension were seeded in a 96-well plate at the density of 6000 cells/well and incubated at 37 °C and 5% CO2. After 24 h, the cells were treated with increasing concentrations of analogs. The next day, media was removed and 200 µL of MTT dye (0.5 mg/mL) was added in each well and incubated for 3 h at 37 °C in 5% CO2 incubator. Then, the media was removed and 100 µL of DMSO was added to solubilize formazan crystals. After one minute of shaking, the absorbance was recorded at 540 nm in microplate reader (Multiskan GO, ThermoScientific, Waltham, MA, USA). Finally, the percent inhibition of proliferation was calculated using the following formula: % inhibition of proliferation=O.D of treated well−O.D of media control/O.D of untreated control−O.D of media control×100

[2] = test system: Human breast cancer (MCF-7) cells; assay: cells; type: cell-based
Method: as §2

S. aureus (NCTC 13277) [3] = assay: microbe, parasite or virus in culture; settings: Staphylococcus aureus, NCTC13277, read-out: MIC S. aureus (NCTC 13277)
[4] = test system: P. aeruginosa (ATCC 10145); assay: Antibacterial broth microdilution MIC assay; type: cell-based, Pseudomonas aeruginosa; settings: >99% inhibition of growth, MH broth, 20-22 h, 37 °C
Method: as §1

[5] = test system: human red blood cells (RBC); assay: Hemolytic assay; type: cell-based; settings: 1 h
Method: For the hemolytic assay, fresh human blood (2 mL) was obtained from a healthy donor in EDTA tube while following the protocol of approval from the Independent Ethics Committee of ICCBS (approval number ICCBS/IEC-047-HB-2019/Protocol/1.0). The blood was centrifuged and upper supernatant plasma was removed. The cell pellets were washed with sterile PBS three times. The washed blood cells were then diluted 25 times to make 4% concentration of the initial blood cells. Red blood cells (500 µL) were treated with increasing concentrations of analogs, with triton X-100 at 0.1% being used as positive control giving 100% hemolysis. After 1 h of incubation at 37 °C, tubes were centrifuged at 800 rpm for 5 min to pellet down red blood cells. After centrifugation, 200 µL of supernatant were transferred into a 96 well plate and the absorbance was recorded at 576 nm using a microplate reader (MultiSkan Go, ThermoScientific). Then, the following formula was applied to calculate percent hemolysis: % Hemolysis=O.D of test sample−O.D of PBS control/O.D of Tritox×positive control−O.D of PBS control×100

C. albicans (ATCC 36082) = assay: microbe, parasite or virus in culture
Method: Candida albicans (ATCC 36082) was cultured on Sabourad Dextrose Agar (SDA). A single colony was inoculated in Sabouraud Dextrose Broth (SDB) medium and grown overnight at 37 °C while shaking. The next day, the susceptibility of C. albicans was tested using a broth microdilution assay. Peptide analogs were diluted in SDB media by two-fold dilution, resulting in 100 µL of medium containing increasing concentrations of analogs. The overnight culture (turbidity at OD600 = 1) was 1000× diluted in SDB. Then 100 µL of this suspension was added to each well, resulting in a final 200 µL suspension containing 2–4 × 10^5 CFU/mL. The plate was incubated at 37 °C for 24 h. The next day, MIC (Minimum Inhibitory Concentration) values were determined as the concentrations of peptides causing > 99% inhibition of yeast growth.

S. typhi (ATCC 14028) [6] = assay: microbe, parasite or virus in culture; settings: Salmonella enterica, read-out: MIC S. typhi (ATCC 14028)
B. subtilis (ATCC 23857) = assay: Antibacterial broth microdilution MIC assay; type: cell-based, Bacillus subtilis; settings: >99% inhibition of growth, MH broth, 20-22 h, 37 °C
Method: as §1

[7] = test system: human red blood cells (RBC); settings: previously reported; cited from earlier work
S. aureus (NCTC 13277) [8] = settings: >99% inhibition of growth, MH broth, 20-22 h, 37 °C
S. typhi (ATCC 14028) [9] = settings: ATCC 14028

| Compound | MIC (E. coli (ATCC 25922); Escherichia coli, ATCC25922) [µM] | pIC50 ([1]; Homo sapiens, HeLa) | pIC50 ([2]; Homo sapiens, MCF7, MTT, 24 h exposure, read-out: IC50 on Breast Cancer (MCF-7)) | MIC (S. aureus (NCTC 13277) [3]) [µM] | MIC ([4]; Pseudomonas aeruginosa, ATCC10145) [µM] | HC50 on Human Red Blood Cells (RBCs) ([5]; human) [µM] | MIC (C. albicans (ATCC 36082); Candida albicans, ATCC36082, 24 h, read-out: MIC C. albicans (ATCC 36082)) [µM] | MIC (S. typhi (ATCC 14028) [6]) [µM] | MIC (B. subtilis (ATCC 23857); Bacillus subtilis, ATCC23857) [µM] | hemolysis HC50 [7] [µM] | MIC (E. coli (ATCC 25922)) [µM] | pIC50 [1] | pIC50 ([2]; lowest IC50 on cancer cells = MCF-7 (peptides 1, 2, 7), from Table 5, read-out: Lower IC50) | MIC S. aureus (NCTC 13277) (S. aureus (NCTC 13277) [8]) [µM] | MIC [4] [µM] | HC50 on Human Red Blood Cells (RBCs) ([5]; 37 °C, 0.1% triton X-100 = 100% hemolysis) [µM] | MIC C. albicans (ATCC 36082) (C. albicans (ATCC 36082); >99% inhibition of yeast growth, SDB, 24 h, 37 °C) [µM] | MIC S. typhi (ATCC 14028) (S. typhi (ATCC 14028) [9]) [µM] | MIC (B. subtilis (ATCC 23857)) [µM] |
| --- | --- | --- | --- | --- | --- | --- | --- | --- | --- | --- | --- | --- | --- | --- | --- | --- | --- | --- | --- |
| C[C@H]1COc2c(N3CCN(C)CC3)c(F)cc3c(=O)c(C(=O)O)cn1c23 [Levofloxacin, reference compound] | 0.78 (≈ 0.282 µg/mL) | < 4.00 | < 4.00 | 25 (≈ 9.03 µg/mL) | 1.56 (≈ 0.564 µg/mL) | >100 | > 250 | 0.39 (≈ 0.141 µg/mL) | 0.39 (≈ 0.141 µg/mL) |  |  |  |  |  |  |  |  |  |  |
| CC[C@H](C)[C@H](NC(=O)[C@@H](C)NC(=O)[C@H](CO)NC(=O)[C@H](CC(C)C)NC(=O)[C@@H](N)Cc1ccccc1)C(=O)N[C@H](C(=O)NCC(=O)N[C@@H](CCSC)C(=O)N[C@@H](CC(C)C)C(=O)NCC(=O)N[C@@H](CCCCN)C(=O)N[C@@H](CC(C)C)C(=O)N[C@@H](Cc1ccccc1)C(N)=O)C(C)C [NST-2 (1), H-Phe^1-Leu^2-Ser^3-D-Ala^4-Ile^5-Val^6-Gly^7-Met^8-Leu^9-Gly^10-Lys^11-Leu^12-Phe^13-NH2] (H-FLS[dA]IVGMLGKLF-NH2) |  |  |  |  |  |  |  |  |  | 90.0 | 125 (≈ 174 µg/mL) | < 4.00 | 4.75 | 14.34 (≈ 20 µg/mL) | >250 | 90.0 | 20 (≈ 27.9 µg/mL) | 250 (≈ 349 µg/mL) | 6.25 (≈ 8.72 µg/mL) |
